Reference: patent US20190275033A1 (Boehringer Ingelheim International GmbH, priority 2016, published 2019)
Entries after “also recorded” stand apart in the source; their conditions may differ.

What was measured:
[1] = test system: Bleomycin-induced lung fibrosis in mice; assay: Bleomycin-induced lung fibrosis in mice; assay type: in vivo
[2] = test system: Silica-induced lung fibrosis in mice; assay: Silica-induced lung fibrosis in mice; assay type: in vivo
[3] = test system: Bleomycin-induced lung fibrosis in rats; assay: Bleomycin-induced lung fibrosis in rats; assay type: in vivo
[4] = test system: Skin and lung fibrosis in transgenic Fra-2 mice; assay: Skin and lung fibrosis in transgenic Fra-2 mice (genetic model of SSc-ILD); assay type: in vivo
From the text: Data are shown in Huang et al., Ann. Rheum. Dis. […] Clin. Pract. Rheumatol. 2006; 1:134-44.

[5] = test system: Rheumatoid arthritis and lung fibrosis in SKG mice; assay: Rheumatoid arthritis and lung fibrosis in zymosan-stimulated SKG mice (RA-ILD model)
From the text: Whether this inflammation is helpful to resolve the fibrosis or detrimental remains open.
INTRODUCTION: Rheumatoid arthritis preferentially affects women and approximately […] of patients have lung abnormalities and involvement. From this group approximately 20% will develop rheumatoid arthritis-associated interstitial lung disease (RA-ILD).
RATIONALE: SKG mice, genetically prone to develop autoimmune arthritis, also develop a pulmonary interstitial pneumonia that resembles human cellular and fibrotic non-specific interstitial pneumonia.
Inflammation in the lungs was measured by BAL (bronchoalveolar lavage) cellularity and in enzymatically-digested lungs. Arthritis of joints and digits was scored weekly.

[6] = test system: collagen-induced arthritis (CIA); assay: Mouse model of collagen-induced arthritis (CIA); assay type: in vivo; conditions: treatment started 13 days after induction, continued for 5 weeks
[7] = test system: animal models of lung fibrosis; assay: Three animal models of lung fibrosis; assay type: in vivo
human lung fibroblast = assay: Human lung fibroblast contraction; assay type: cell-based; conditions: clinically relevant concentrations
patients with IPF = conditions: cited from earlier work
[8] = cited from earlier work
[9] = test system: vascular endothelial growth factor receptors (VEGFRs); conditions: preclinical studies; cited from earlier work
[10] = test system: platelet-derived growth factor receptors (PDGFRs); conditions: preclinical studies; cited from earlier work
[11] = test system: fibroblast growth factor receptors (FGFRs); conditions: preclinical studies; cited from earlier work
[12] = preclinical studies; cited from earlier work
PDGFR-α = target: T1, PDGFR-α (Homo sapiens, UniProt P16234); conditions: normal human lung fibroblasts in vitro; cited from earlier work
T1 construct: endogenous in cells; host or cells: normal human lung fibroblasts

PDGFR-β = target: T2, PDGFR-β (Homo sapiens, UniProt P09619); conditions: normal human lung fibroblasts in vitro; cited from earlier work
T2 construct: endogenous in cells; host or cells: normal human lung fibroblasts

[13] = test system: lung fibroblasts from patients with IPF; conditions: cited from earlier work
[14] = test system: primary human lung fibroblasts from IPF patients; conditions: cited from earlier work
mouse models of IPF = conditions: in vivo; cited from earlier work
[15] = test system: bleomycin-induced skin fibrosis in mice; conditions: therapeutic nintedanib treatment; cited from earlier work
[16] = early treatment, developing lung disease
[17] = early treatment, from week 5 after zymosan
[18] = late treatment, week 16, vs saline
[19] = preventive or therapeutic dosing regimen
[20] = lung fibroblasts from patients with IPF

T1 sequence (P16234 24-1089): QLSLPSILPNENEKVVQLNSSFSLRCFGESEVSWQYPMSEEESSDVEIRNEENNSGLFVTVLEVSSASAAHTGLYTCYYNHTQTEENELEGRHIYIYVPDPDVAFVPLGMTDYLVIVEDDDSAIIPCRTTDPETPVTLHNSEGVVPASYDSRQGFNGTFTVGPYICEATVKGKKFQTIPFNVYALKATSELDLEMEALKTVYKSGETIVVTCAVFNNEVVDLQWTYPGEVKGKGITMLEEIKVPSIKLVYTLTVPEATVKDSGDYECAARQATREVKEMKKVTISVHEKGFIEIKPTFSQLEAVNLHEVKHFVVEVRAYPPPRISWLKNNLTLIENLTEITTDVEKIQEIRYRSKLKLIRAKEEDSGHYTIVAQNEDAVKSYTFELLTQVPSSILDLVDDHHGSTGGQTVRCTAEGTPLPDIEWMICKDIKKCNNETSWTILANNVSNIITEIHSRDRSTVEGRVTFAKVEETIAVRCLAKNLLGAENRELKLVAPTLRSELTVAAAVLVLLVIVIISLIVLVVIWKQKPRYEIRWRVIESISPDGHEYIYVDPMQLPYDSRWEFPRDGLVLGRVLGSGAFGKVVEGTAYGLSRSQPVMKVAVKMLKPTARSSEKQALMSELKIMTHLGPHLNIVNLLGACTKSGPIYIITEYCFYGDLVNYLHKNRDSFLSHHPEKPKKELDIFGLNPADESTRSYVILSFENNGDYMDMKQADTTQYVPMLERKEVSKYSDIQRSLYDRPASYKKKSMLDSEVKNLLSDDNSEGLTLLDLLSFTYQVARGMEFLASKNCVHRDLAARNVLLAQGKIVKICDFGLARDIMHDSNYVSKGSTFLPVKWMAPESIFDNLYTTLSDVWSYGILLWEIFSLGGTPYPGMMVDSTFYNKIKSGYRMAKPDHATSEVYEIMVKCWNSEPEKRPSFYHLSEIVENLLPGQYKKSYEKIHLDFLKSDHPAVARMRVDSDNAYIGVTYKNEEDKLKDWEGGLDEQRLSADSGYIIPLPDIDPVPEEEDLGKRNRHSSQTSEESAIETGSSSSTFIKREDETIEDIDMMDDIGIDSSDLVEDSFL
T2 sequence (P09619 33-1106): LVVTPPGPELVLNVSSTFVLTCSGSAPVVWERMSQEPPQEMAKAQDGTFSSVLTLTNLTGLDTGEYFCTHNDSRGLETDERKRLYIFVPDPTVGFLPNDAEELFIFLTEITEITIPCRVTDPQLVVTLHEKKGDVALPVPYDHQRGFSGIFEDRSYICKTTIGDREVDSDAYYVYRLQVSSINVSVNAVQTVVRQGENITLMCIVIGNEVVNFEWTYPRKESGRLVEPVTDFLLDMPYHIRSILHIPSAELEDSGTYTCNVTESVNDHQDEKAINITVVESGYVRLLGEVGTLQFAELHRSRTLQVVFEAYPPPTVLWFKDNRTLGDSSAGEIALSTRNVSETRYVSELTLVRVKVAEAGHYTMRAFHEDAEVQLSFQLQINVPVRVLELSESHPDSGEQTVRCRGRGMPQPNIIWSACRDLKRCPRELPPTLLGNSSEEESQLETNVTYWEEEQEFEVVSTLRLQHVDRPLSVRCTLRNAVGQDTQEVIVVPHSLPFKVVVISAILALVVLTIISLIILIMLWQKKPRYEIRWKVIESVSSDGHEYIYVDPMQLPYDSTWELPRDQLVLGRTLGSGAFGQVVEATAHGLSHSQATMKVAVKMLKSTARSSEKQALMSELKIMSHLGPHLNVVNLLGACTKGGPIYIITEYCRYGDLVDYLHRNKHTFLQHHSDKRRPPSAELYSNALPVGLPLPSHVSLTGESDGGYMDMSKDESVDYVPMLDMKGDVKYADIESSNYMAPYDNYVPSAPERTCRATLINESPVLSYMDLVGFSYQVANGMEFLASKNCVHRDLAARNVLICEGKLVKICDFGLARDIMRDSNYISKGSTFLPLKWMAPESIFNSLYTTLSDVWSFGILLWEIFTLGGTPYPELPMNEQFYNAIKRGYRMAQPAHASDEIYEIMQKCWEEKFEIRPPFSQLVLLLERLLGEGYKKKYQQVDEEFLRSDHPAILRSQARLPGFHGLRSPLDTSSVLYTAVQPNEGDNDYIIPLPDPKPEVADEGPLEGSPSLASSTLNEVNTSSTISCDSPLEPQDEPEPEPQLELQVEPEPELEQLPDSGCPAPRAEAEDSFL

In the case of `COC(=O)c1ccc2c(c1)NC(=O)/C2=C(\Nc1ccc(N(C)C(=O)CN2CCN(C)CC2)cc1)c1ccccc1` [nintedanib, 3-Z-[1-(4-(N-((4-methyl-piperazin-1-yl)-methylcarbonyl)-N-methyl-amino)-anilino)-1-phenyl-methylene]-6-methoxycarbonyl-2-indolinone], the BALF lymphocytes ([1]; preventive treatment) is reported as “cytes↓”, the IL-1β ([1]; preventive treatment) is reported as “IL-1β↓” and the Lung fibrosis ([1]; preventive treatment) is reported as “fibrosis↓”. The Lung inflammation ([1]; preventive treatment) was “mation↓”, the TIMP-1 ([1]; preventive treatment) was “TIMP-1↓” and the BALF lymphocytes ([1]; therapeutic treatment) was “cytes↓”. For the same molecule, the IL-1β ([1]; therapeutic treatment) was “IL-1β↓”, the Lung collgen ([1]; therapeutic treatment) was “collgen↓” and the Lung fibrosis ([1]; therapeutic treatment) was “fibrosis↓”. The Lung inflammation ([1]; therapeutic treatment) was “mation↓”, the TIMP-1 ([1]; therapeutic treatment) was “TIMP-1↓” and the “BALF neutrophils + lymphocytes” value ([2]; preventive treatment) was “cytes↓”. For the same molecule, the IL-1β ([2]; preventive treatment) was “IL-1β↓”, the KC ([2]; preventive treatment) was “KC↓” and the Lung collagen ([2]; preventive treatment) was “collagen↓”. The Lung fibrosis ([2]; preventive treatment) was “fibrosis↓”, the Lung inflammation ([2]; preventive treatment) was “mation↓” and the TIMP-1 ([2]; preventive treatment) was “TIMP-1↓”. The “BALF neutrophils + lymphocytes” value ([2]; therapeutic treatment) was “cytes↓”, the IL-1β ([2]; therapeutic treatment) was “IL-1β↓” and the IL-6 ([2]; therapeutic treatment) was “IL-6↓”. For the same molecule, the KC ([2]; therapeutic treatment) was “KC↓”, the Lung collagen ([2]; therapeutic treatment) was “collagen↓” and the Lung fibrosis ([2]; therapeutic treatment) was “fibrosis↓”. For the same molecule, the Lung inflammation ([2]; therapeutic treatment) was “mation↓”, the TIMP-1 ([2]; therapeutic treatment) was “TIMP-1↓” and the “Lung fibrosis (Ashcroft score)” value ([3]; preventive treatment) was “score)↓”. For the same molecule, the “Lung fibrosis (Ashcroft score)” value ([3]; therapeutic treatment) was “score)↓”, the Lung fibrosis ([4]; Fra2+/− mice) was “normalises” and the lung vascular remodelling ([4]; Fra2+/− mice) was “normalises”. The skin fibrosis ([4]; Fra2+/− mice) was “normalises”, the Dermal thickness ([4]; therapeutic treatment) was “thickness↓” and the ECM ([4]; therapeutic treatment) was “ECM↓”. For the same molecule, the Hydroxiproline ([4]; therapeutic treatment) was “Hydroxiproline↓”, the MVEC apoptosis ([4]; therapeutic treatment) was “apoptosis↑” and the Occluded vessels ([4]; therapeutic treatment) was “vessels↓”. For the same molecule, the “Skin and lung myofibroblast count” value ([4]; therapeutic treatment) was “count↓”, the VSMC ([4]; therapeutic treatment) was “VSMC↓” and the Vessel wall thickness ([4]; therapeutic treatment) was “thickness↓”. The “inflammation in the lung” value ([5]; SKG mice treated with zymosan) was “slight but selective inflammation”, the Arthritic score ([5]; early treatment) was “score↓” and the “Lung tissue B220 + B-cells” value ([5]; early treatment) was “B-cells↑”. The “Lung tissue CD103 + Dendritic cells” value ([5]; early treatment) was “cells↑”, the “Lung tissue Monocytes” value ([5]; early treatment) was “Monocytes↓” and the “Lung tissue Neutrophils” value ([5]; early treatment) was “Neutrophils↑”. For the same molecule, the static lung compliance ([5]; early treatment) was “ance↑”, the “lymphocytes in the BAL” value [5, 16] was “trend towards increased” and the “neutrophils in the BAL” value [5, 16] was “trend towards increased”. For the same molecule, the “total number of alveolar macrophages” value ([5]; early treatment, developing lung disease, vs saline) was “no significant difference”, the “lung collagen deposition (hydroxyproline)” value [5, 17] was “no effect; also recorded: not significantly altered” and the “static lung compliance (lung function)” value [5, 17] was “improved lung function; also recorded: increase in static lung compliance”. For the same molecule, the “arthritis score / joint swelling” value ([5]; early treatment, from week 5 after zymosan (week 5-11), 60 mg/kg daily gavage, vs saline, 60 mg/kg) was “attenuated arthritis pathology; also recorded: significant reduction in their development of arthritis; also recorded: significantly reduced; also recorded: reversal of joint swelling”, the “lung collagen (hydroxyproline) / pulmonary fibrosis” value ([5]; late (therapeutic) treatment for six weeks, established arthritis) was “reduction of collagen deposition; also recorded: significant reduction of lung collagen; also recorded: significantly reduces; also recorded: significant decrease” and the “BAL lymphocytes and neutrophils” value ([5]; late treatment) was “neutrophils↑”. For the same molecule, the Lung hydroxiproline ([5]; late treatment) was “hydroxiproline↓”, the “Lung tissue inflammatory macrophages” value ([5]; late treatment) was “macrophages↑” and the static lung compliance ([5]; late treatment, established lung disease) was “no significant difference”. The “arthritis score / joint swelling” value ([5]; late treatment, from week 10 after zymosan (week 10-16), established disease, vs saline) was “reduction of the arthritis score if the score was normalized to the last measurement before the start of the nintedanib treatment; also recorded: not altered; also recorded: slightly increased the resolution of joint swelling”, the “alveolar macrophages (BAL)” value ([5]; late treatment, vs saline) was “no significant difference” and the “number of lymphocytes (BAL)” value ([5]; late treatment, vs saline) was “small but significant elevation”. For the same molecule, the “number of neutrophils (BAL)” value ([5]; late treatment, vs saline) was “small but significant elevation”, the “total number of BAL cells” value ([5]; late treatment, vs saline) was “no significant difference” and the percent survival [5, 18] was “no significant change”. For the same molecule, the weight [5, 18] was “no significant change”, the Arthritic score ([5]; late treatment, if the data is normalised to the last scoring before the nintedanib treatment starts) was “score↓*” and the “B220+ B-cells” value ([5]; lungs, six weeks of nintedanib) was “small but significant increase”. For the same molecule, the “CD4+ T-cells” value ([5]; lungs, six weeks of nintedanib) was “small but significant increase”, the macrophage numbers ([5]; lungs, six weeks of nintedanib) was “no changes” and the lung dendritic cells ([5]; nintedanib beginning at week 5) was “significant increase”. For the same molecule, the lung neutrophils ([5]; nintedanib beginning at week 5) was “significant increase”, the “increase in lung neutrophils” value ([5]; nintedanib beginning at week 11) was “not at week 11” and the arthritis score [6] was “no attenuating effect”. The “accumulation of lymphocytes in the bronchoalveolar lavage fluid (BALF)” value ([7]; in vivo) was “attenuated”, the “chemokine CXCL1/KC in lung tissue” value ([7]; in vivo) was “reduced” and the “collagen content in lung tissue” value ([7]; in vivo) was “reduced”. For the same molecule, the “interleukin (IL)-10 in lung tissue” value ([7]; in vivo) was “reduced”, the “mRNA expression of procollagen 1” value ([7]; in vivo) was “blocked” and the “mRNA expression of transforming growth factor (TGF)-β1” value ([7]; in vivo) was “blocked”. For the same molecule, the “tissue inhibitor of metalloproteinases (TIMP)-1 in lung tissue” value ([7]; in vivo) was “reduced”, the “histology score of fibrosis in lung sections” value [7, 19] was “reduced” and the “histology score of granuloma formation in lung sections” value [7, 19] was “reduced”. The “histology score of inflammation in lung sections” value [7, 19] was “reduced”, the “human lung fibroblast contraction” value (human lung fibroblast) was “inhibits” and the efficacy versus placebo (patients with IPF; INPULSIS and TOMORROW trials, 150 mg twice daily) was “positive results”. The “reduction of the annual rate of decline in FVC (mL/year)” value (patients with IPF; both INPULSIS trials, 150 mg twice daily versus placebo) was “approximately 50%”, the “elimination via biliary/faecal excretion” value ([8]; human, in vivo) was greater than 90% and the exposure ([8]; patients with hepatic impairment (Child Pugh A, Child Pugh B)) was “increased”. For the same molecule, the “inhibition of VEGFRs” value [9] was “highly potent”, the “inhibition of PDGFRs” value [10] was “highly potent” and the “inhibition of FGFRs” value [11] was “highly potent”. The oral bioavailability [12] was “orally bioavailable”, the PDGFR-α activation (PDGFR-α) was “inhibit” and the PDGFR-β activation (PDGFR-β) was “inhibit”. The “migration of human lung fibroblasts from patients with IPF” value [13] was “inhibited”, the FGF-2-stimulated migration [13, 20] was “attenuated” and the PDGF-stimulated migration [13, 20] was “attenuated”. The “TGF-β-induced fibroblast to myofibroblast transformation” value [14] was “inhibited”, the “fibrosis in histological analyses” value (mouse models of IPF) was “reduced” and the “granuloma formation in histological analysis of lung tissue” value (mouse models of IPF) was “reduced”. For the same molecule, the “inflammation in histological analysis of lung tissue” value (mouse models of IPF) was “reduced”, the inflammatory cytokines (mouse models of IPF) was “reductions” and the “lymphocyte counts in the bronchoalveolar lavage fluid” value (mouse models of IPF) was “significant reductions”. For the same molecule, the “neutrophil counts in the bronchoalveolar lavage fluid” value (mouse models of IPF) was “significant reductions”, the total lung collagen (mouse models of IPF) was “significant reductions” and the bleomycin-induced skin fibrosis [15] was “attenuation”.
